# Laboratory results published in patent publication US7432299B2, “Method of treatment for sexual dysfunction” (Pfizer Inc., priority 2002, dated 2008).
# Key:
# rapid ejaculating rats = test: Copulatory behaviour in rapid ejaculating conscious rats (model of premature ejaculation); type: in vivo, rat
# Procedure: For all the sexual behavour tests, the rapid ejaculating male rats were used as an animal model of premature ejaculation (classified as ejaculatory latency <300 s during baseline assessment). Rapid ejaculating rats were placed in an observation arena (50-60 cm diameter), starting 5 hours into the dark cycle and observed under red ilumination. Three to four minutes after placing the male in the arena, a receptive female (ovariectomised, oestradiol benzoate/progesterone injection 48 hour before behavioural study) was introduced into the arena and the following parameters noted: • i) ejaculatory latency (EJL; time taken from addition of receptive female into the arena to ejaculation); • ii) copulatory efficiency (CE; ejaculatory latency/the number of intromissions to ejaculation, i.e. the number of seconds between intromissions); • iii) intromission frequency (IF; the number of intromissions to ejaculation); • iv) mount frequency (MF; the number of mounts to ejaculation); • v) post ejaculatory interval (PEI; the time taken from ejaculation to the commencement of copulatory behaviour). The Compound Used in the Following Examples was as Follows:
# Rodent copulatory behaviour is characterised by a series of mounts, with and without vaginal insertion (50-80% of mounts result in intromission [vaginal penetration]) and ejaculation occurs after 6 to 12 intromissions. Each intromission lasts a matter of seconds—it is not possible to quantify intromission length i.e. intravaginal latency. The effect of Compound (XI) was assessed on a number of copulatory parameters (see above). We have focused ejaculatory latency as a clinical biomarker of time taken to achieve ejaculation. The study was performed in rapid ejaculating rats as a model of premature ejaculation (rats characterised by ejaculatory latency <300 s at baseline).
# Compound (XI), an alpha-2-delta ligand, increased ejaculatory latency by 58% in rapidly-ejaculating conscious rats (P<0.01); i.e. Compound (XI) (10 mg/kg, 60 min post oral dosing)-treated animals took 219 s to ejaculate compared to 139 s in vehicle treated animals (see Table 2 below).
# [1] = tested on: PCA-induced ejaculation in anaesthetised rats; test: p-chloroamphetamine (PCA)-induced ejaculation in anaesthetised rat model of premature ejaculation; type: in vivo; settings: for animals that failed to ejaculate within 30 minutes: assigned ejaculatory latency of 1800 s
# Procedure: In order to study penile erection and ejaculation the method used was based on the methodology taught in Yonezawa et al (2000) Life Sciences 67, 3031-3039. For ease of reference, this methodology is described below:
# Male Sprague Dawley rats, weighing 350-450 g, are used. Prior to the experiments the animals are housed in groups (2 rats per cage) under controlled 12 h light-dark cycle (lights on at 07:00), constant temperature (23±1° C.) and humidity (55±5%). They have free access to standard food pellets and water.
# Rats are anesthestised with sodium pentobarbitone (50 mg/kg, i.p.) and are placed in the supine position. The penis is extruded from its sheath and gently held by a wooden applicator positioned at the base of the penis. The test compounds are administered orally and p-chloroamphetamine (PCA) (5-10 mg/kg) is administered i.p. immediately before the sheath retraction and the penile responses, including penile erection, redding and expansion of the penile body, glans erection, engorgement and slight flaring of the glans and cup, glans erection with intense flaring of the glans, are recorded in the presence of test compound or vehicle. Latencies from PCA administration to the initial penile response and ejaculation is also measured in seconds in the presence of test compound or vehicle.
# Compound (XI) was dosed orally and was tested at 1, 3, 10 or 30 mg/kg po, 60 min prior to PCA administration).
structure (smiles),measurement,setting,value
"NC[C@]1(CC(=O)O)C[C@H]2CCC[C@H]21 [Compound (XI), (1R,5R,6S)-[6-(Aminomethyl)bicyclo[3.2.0]hept-6-yl]acetic acid]",ejaculatory latency,"rapid ejaculating rats; 10 mg/kg po, mean ± sem (n = 6), P < 0.01",219 ± 26 s
same,other effects on copulatory behaviour,"rapid ejaculating rats; rapidly-ejaculating conscious rats, 10 mg/kg po",no other significant effects
same,increase of ejaculatory latency,"rapid ejaculating rats; rapidly-ejaculating conscious rats, 10 mg/kg, 60 min post oral dosing, P<0.01",58%
same,time to ejaculate (ejaculatory latency),"rapid ejaculating rats; rapidly-ejaculating conscious rats, 10 mg/kg, 60 min post oral dosing, vehicle 139 s",219 s
same,animals that failed to ejaculate within 30 minutes,[1]; 3 mg/kg po,3 out of 7
same,time taken to achieve erection,[1]; 10 mg/kg po,small delay
same,animals that failed to ejaculate within 30 minutes,[1]; 10 mg/kg po,3 out of 7
same,time taken to achieve erection,[1]; 30 mg/kg po,small delay
same,p-chloroamphetamine (PCA)-induced ejaculation,"[1]; anaesthetised rats, 1, 3, 10 or 30 mg/kg po, 60 min prior to PCA administration",significantly delayed
same,quality of erection,"[1]; anaesthetised rats, 1-30 mg/kg po",not influenced
same,increase of ejaculatory latency,"[1]; anaesthetised rats, dose-dependent, 1-30 mg/kg po, 60 min prior to PCA",up to 250%
same,ejaculatory latency,"[1]; anaesthetised rats, doses above 3 mg/kg po, vehicle circa 300 s",circa 1000 s
